Two compounds from patent publication US11325937B2, “Glycoside compound and preparation method therefor, composition, application, and intermediate” (SHANGHAI HUTCHISON PHARMACEUTICALS LIMITED, priority 2018, dated 2022) can be followed below.

The experiment relates to VEGF-A mRNA expression in macrophages (RAW264.7). In words: In vitro macrophage experiment: activity of compounds to promote VEGF-A mRNA expression (RT-qPCR). It is filed as cell-based. As to conditions: Mus musculus, RAW264.7 macrophages, 3 h, relative expression, no drug = 1, read-out: Expression level of VEGF-A mRNA; for fold induction at 500 µM: 0.5 mM; for fold induction at 1000 µM: 1 mM; for fold induction at 2000 µM: 2 mM; for fold induction at 3000 µM: 3 mM; for fold induction at 4000 µM: 4 mM. Summed up:
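RAW264.7 macrophages were exposed to test compounds at various concentrations for 3 h at 37° C. VEGF-A mRNA was measured by SYBR Green RT-qPCR, normalized to β-Actin, and expressed as 2^−ΔΔCt relative to untreated cells (=1). Activity is the maximal fold induction, with ≥4 as hit criterion.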
(In general: Quantitative PCR measures a nucleic acid by following its amplification.)

With `COc1ccc(CCCCO[C@@H]2O[C@H](CO)[C@@H](O)[C@H](O)[C@H]2O)cc1` [TG-028], the fold induction at 500 µM came out at 0.79, the fold induction at 1000 µM came out at 0.39, the fold induction at 2000 µM amounted to 6.77 and the fold induction at 3000 µM turned out to be 13.4. In addition, the fold induction at 4000 µM was 4.23.

As for `OC[C@H]1O[C@@H](OCCc2ccccc2)[C@H](O)[C@@H](O)[C@@H]1O` [TG-055], the fold induction at 500 µM was determined as 6.36, the fold induction at 1000 µM turned out to be 2.11, the fold induction at 2000 µM amounted to 4.44 and the fold induction at 3000 µM worked out at 3.81. Also, the fold induction at 4000 µM was found to be 6.11.
